target: T1, human M1 receptor (hCHRM1) (Homo sapiens, UniProt P11229); test: Measurement of M1 receptor positive allosteric modulator (M1PAM) activity, calcium fluorescence (FLIPRtetra); format: cell-based; conditions: 10 μM test compound with acetylcholine at EC20 (final 0.6-0.8 nM); 100% = acetylcholine 1 μM, 0% = DMSO; CHO-K1 cells expressing hCHRM1
T1 construct: expressed in transfected cells
T1 sequence (P11229 1-460): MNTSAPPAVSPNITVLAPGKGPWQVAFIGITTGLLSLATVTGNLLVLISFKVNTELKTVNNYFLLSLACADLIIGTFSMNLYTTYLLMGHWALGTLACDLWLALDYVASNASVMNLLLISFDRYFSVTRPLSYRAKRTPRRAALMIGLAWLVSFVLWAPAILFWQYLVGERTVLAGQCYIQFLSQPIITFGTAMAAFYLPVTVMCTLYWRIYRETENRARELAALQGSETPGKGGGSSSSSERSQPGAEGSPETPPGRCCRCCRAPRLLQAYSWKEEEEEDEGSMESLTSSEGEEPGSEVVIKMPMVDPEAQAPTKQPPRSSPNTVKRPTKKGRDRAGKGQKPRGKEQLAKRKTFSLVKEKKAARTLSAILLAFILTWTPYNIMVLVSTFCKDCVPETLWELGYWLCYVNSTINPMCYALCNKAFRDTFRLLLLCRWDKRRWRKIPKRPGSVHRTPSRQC
Experimental: Measurement of M1 Receptor Positive Allosteric Modulator (M1PAM) Activity
The activity of a test compound in the presence of acetylcholine at EC20 concentration (final concentration 0.6-0.8 nM), which affords an action corresponding to about 20% of the maximum activity, was measured as PAM activity. The method is as follows. CHO-K1 cells stably expressing a human M1 receptor (hCHRM1) were plated on a 384-well black clear bottom plate (BD Falcon) at 5,000 cells/well, and cultured in an incubator at 37° C., 5% CO2 for 1 day. The medium in the cell plate was removed, and assay buffer A containing calcium indicator (Recording medium (DOJINDO LABORATORIES), 0.1% BSA (Wako Pure Chemical Industries, Ltd.), 2.5 μg/mL Fluo-4 AM (DOJINDO LABORATORIES), 0.08% Pluronic F127 (DOJINDO LABORATORIES), 1.25 mM probenecid (DOJINDO LABORATORIES)) was added at 30 μL/well. The cells were left standing in the incubator at 37° C., 5% CO2 for 30 min, and further left standing at room temperature for 30 min. A test compound prepared by diluting with assay buffer B (HBSS (Invitrogen), 20 mM HEPES (Invitrogen), 0.1% BSA) containing 2.4-3.2 nM acetylcholine was added at 10 μL/well, and the fluorescence was measured by FLIPRtetra (Molecular Devices) for 1 min every for 1 second. With the definition that the amount of change in the fluorescence on addition of acetylcholine (final concentration 1 μM) is 100% and that on addition of DMSO instead of a test compound is 0%, the activity (%) of the test compound was calculated, and the inflection point in the concentration-dependent curve of the test compound was calculated as IP values.

Row | SMILES | activity (%) at 10 μM
1 | Cc1cnc(C(=O)NC2CC(F)(F)C2)cc1Cc1ccc(-c2ccn(C)n2)cc1 [Example 30, N-(3,3-difluorocyclobutyl)-5-methyl-4-(4-(1-methyl-1H-pyrazol-3-yl)benzyl)pyridine-2-carboxamide] | 85%
2 | Cc1cnc(C(=O)NC2CCOC2)cc1Cc1ccc(-c2ccn(C)n2)cc1 (stereo not shown) [Example 31, 5-methyl-4-(4-(1-methyl-1H-pyrazol-3-yl)benzyl)-N-(tetrahydrofuran-3-yl)pyridine-2-carboxamide] | 84%
3 | Cc1cnc(C(=O)NC2CCCOC2)cc1Cc1ccc(-c2ccn(C)n2)cc1 (stereo not shown) [Example 32, 5-methyl-4-(4-(1-methyl-1H-pyrazol-3-yl)benzyl)-N-(tetrahydro-2H-pyran-3-yl)pyridine-2-carboxamide] | 101%
4 | Cc1cnc(C(=O)NC2CCC(F)(F)CC2)cc1Cc1ccc(-c2ccn(C)n2)cc1 [Example 33, N-(4,4-difluorocyclohexyl)-5-methyl-4-(4-(1-methyl-1H-pyrazol-3-yl)benzyl)pyridine-2-carboxamide] | 71%
5 | Cc1cnc(C(=O)N[C@H]2CCC[C@@H]2O)cc1Cc1ccc(-n2cccn2)nc1 [Example 34, N-((1S,2S)-2-hydroxycyclopentyl)-5-methyl-4-((6-(1H-pyrazol-1-yl)pyridin-3-yl)methyl)pyridine-2-carboxamide] | 96%
6 | Cc1cnc(C(=O)N[C@H]2CCCC[C@@H]2O)cc1Cc1ccc(-n2cccn2)nc1 [Example 35, N-((1S,2S)-2-hydroxycyclohexyl)-5-methyl-4-((6-(1H-pyrazol-1-yl)pyridin-3-yl)methyl)pyridine-2-carboxamide] | 102%
7 | Cc1cnc(C(=O)N[C@H]2COCC[C@@H]2O)cc1Cc1ccc(-n2cccn2)cc1F [Example 36, 1,5-anhydro-2,4-dideoxy-2-(((4-(2-fluoro-4-(1H-pyrazol-1-yl)benzyl)-5-methylpyridin-2-yl)carbonyl)amino)-L-threo-pentitol] | 95%
8 | O=C(N[C@H]1CCC[C@@H]1O)c1cc(Cc2ccc(-n3cccn3)cc2)c(C(F)F)cn1 [Example 37, 5-(difluoromethyl)-N-((1S,2S)-2-hydroxycyclopentyl)-4-(4-(1H-pyrazol-1-yl)benzyl)pyridine-2-carboxamide] | 106%
9 | O=C(N[C@H]1CCCC[C@@H]1O)c1cc(Cc2ccc(-n3cccn3)cc2)c(C(F)F)cn1 [Example 38, 5-(difluoromethyl)-N-((1S,2S)-2-hydroxycyclohexyl)-4-(4-(1H-pyrazol-1-yl)benzyl)pyridine-2-carboxamide] | 101%
10 | O=C(N[C@H]1COCC[C@@H]1O)c1cc(Cc2ccc(-n3cccn3)cc2)c(C(F)F)cn1 [Example 39, 1,5-anhydro-2,4-dideoxy-2-(((5-(difluoromethyl)-4-(4-(1H-pyrazol-1-yl)benzyl)pyridin-2-yl)carbonyl)amino)-L-threo-pentitol] | 100%
11 | Cn1ccc(-c2ccc(Cc3cc(C(=O)N[C@H]4COCC[C@@H]4O)ncc3C(F)F)cc2)n1 [Example 40, 1,5-anhydro-2,4-dideoxy-2-(((5-(difluoromethyl)-4-(4-(1-methyl-1H-pyrazol-3-yl)benzyl)pyridin-2-yl)carbonyl)amino)-L-threo-pentitol] | 95%
12 | Cn1ccc(-c2ccc(Cc3cc(C(=O)N[C@H]4CCCC[C@@H]4O)ncc3C(F)F)cc2)n1 [Example 41, 5-(difluoromethyl)-N-((1S,2S)-2-hydroxycyclohexyl)-4-(4-(1-methyl-1H-pyrazol-3-yl)benzyl)pyridine-2-carboxamide] | 95%
13 | C=Cc1cnc(C(=O)N[C@H]2CCCC[C@@H]2O)cc1Cc1ccc(-n2cccn2)cc1 [Example 42, N-((1S,2S)-2-hydroxycyclohexyl)-4-(4-(1H-pyrazol-1-yl)benzyl)-5-vinylpyridine-2-carboxamide] | 106%
14 | CCc1cnc(C(=O)N[C@H]2CCCC[C@@H]2O)cc1Cc1ccc(-n2cccn2)cc1 [Example 43, 5-ethyl-N-((1S,2S)-2-hydroxycyclohexyl)-4-(4-(1H-pyrazol-1-yl)benzyl)pyridine-2-carboxamide] | 92%
15 | CCc1cnc(C(=O)N[C@H]2COCC[C@@H]2O)cc1Cc1ccc(-n2cccn2)cc1 [Example 44, 1,5-anhydro-2,4-dideoxy-2-(((5-ethyl-4-(4-(1H-pyrazol-1-yl)benzyl)pyridin-2-yl)carbonyl)amino)-L-threo-pentitol] | 92%
16 | O=C(N[C@H]1CCCC[C@@H]1O)c1cc(Cc2ccc(-n3cccn3)cc2)ccn1 [Example 45, N-((1S,2S)-2-hydroxycyclohexyl)-4-(4-(1H-pyrazol-1-yl)benzyl)pyridine-2-carboxamide] | 102%

Other lines, results leading:

Row | activity (%) at 10 μM | SMILES
17 | 101% | O=C(N[C@H]1CCCC[C@@H]1O)c1cc(Cc2ccc(-n3cccn3)cc2)c(C2CC2)cn1 [Example 46, 5-cyclopropyl-N-((1S,2S)-2-hydroxycyclohexyl)-4-(4-(1H-pyrazol-1-yl)benzyl)pyridine-2-carboxamide]
18 | 96% | O=C(N[C@H]1COCC[C@@H]1O)c1cc(Cc2ccc(-n3cccn3)cc2)c(C2CC2)cn1 [Example 47, 1,5-anhydro-2-(((5-cyclopropyl-4-(4-(1H-pyrazol-1-yl)benzyl)pyridin-2-yl)carbonyl)amino)-2,4-dideoxy-L-threo-pentitol]
19 | 106% | Cc1cnc(C(=O)N[C@H]2CCCC[C@@H]2O)cc1Cc1ccc(-n2cccn2)cc1 [Example 48, N-((1S,2S)-2-hydroxycyclohexyl)-5-methyl-4-(4-(1H-pyrazol-1-yl)benzyl)pyridine-2-carboxamide]
20 | 99% | Cc1cnc(C(=O)N[C@H]2COCC[C@@H]2O)cc1Cc1ccc(-n2cccn2)cc1 [Example 49, 1,5-anhydro-2,4-dideoxy-2-(((5-methyl-4-(4-(1H-pyrazol-1-yl)benzyl)pyridin-2-yl)carbonyl)amino)-L-threo-pentitol]
21 | 105% | Cc1cnc(C(=O)N[C@H]2CCC[C@@H]2O)cc1Cc1ccc(-n2cccn2)cc1 [Example 50, N-((1S,2S)-2-hydroxycyclopentyl)-5-methyl-4-(4-(1H-pyrazol-1-yl)benzyl)pyridine-2-carboxamide]
22 | 95% | Cn1ccc(-c2ccc(Cc3cc(C(=O)N[C@H]4CCCC[C@@H]4O)ncc3Cl)cc2)n1 [Example 51, 5-chloro-N-((1S,2S)-2-hydroxycyclohexyl)-4-(4-(1-methyl-1H-pyrazol-3-yl)benzyl)pyridine-2-carboxamide]
23 | 100% | Cn1ccc(-c2ccc(Cc3cc(C(=O)N[C@H]4CCCC[C@@H]4O)ncc3Cl)cc2)n1 [Example 52, 5-chloro-N-((1S,2S)-2-hydroxycyclohexyl)-4-(4-(1-methyl-1H-pyrazol-3-yl)benzyl)pyridine-2-carboxamide]
24 | 93% | O=C(N[C@H]1CCC[C@@H]1O)c1cc(Cc2ccc(-n3cccn3)cc2F)c(Cl)cn1 [Example 53, 5-chloro-4-(2-fluoro-4-(1H-pyrazol-1-yl)benzyl)-N-((1S,2S)-2-hydroxycyclopentyl)pyridine-2-carboxamide]
25 | 99% | O=C(N[C@H]1CCCC[C@@H]1O)c1cc(Cc2ccc(-n3cccn3)cc2F)c(Cl)cn1 [Example 54, 5-chloro-4-(2-fluoro-4-(1H-pyrazol-1-yl)benzyl)-N-((1S,2S)-2-hydroxycyclohexyl)pyridine-2-carboxamide]
26 | 97% | O=C(N[C@H]1CCCC[C@@H]1O)c1cc(Cc2ccc(-n3cccn3)cc2)c(F)cn1 [Example 55, 5-fluoro-N-((1S,2S)-2-hydroxycyclohexyl)-4-(4-(1H-pyrazol-1-yl)benzyl)pyridine-2-carboxamide]
27 | 103% | COc1cnc(C(=O)N[C@H]2COCC[C@@H]2O)cc1Cc1ccc(-n2cccn2)cc1 [Example 56, 1,5-anhydro-2,4-dideoxy-2-(((5-methoxy-4-(4-(1H-pyrazol-1-yl)benzyl)pyridin-2-yl)carbonyl)amino)-L-threo-pentitol]
28 | 95% | COc1cnc(C(=O)N[C@H]2CCCC[C@@H]2O)cc1Cc1ccc(Cl)nc1 [Example 57, 4-((6-chloropyridin-3-yl)methyl)-N-(2-trans-hydroxycyclohexyl)-5-methoxypyridine-2-carboxamide]

— patent US10214508B2, “Nitrogen-containing heterocyclic compound” (Takeda Pharmaceutical Company Limited, priority 2014, dated 2019)
